Test results as given in PMC10958501, “4-Oxypiperidine Ethers as Multiple Targeting Ligands at Histamine H3 Receptors and Cholinesterases” (ACS Chemical Neuroscience, 2024).

Assays:
[1] = molecular target: T1, hH3R (Homo sapiens, UniProt Q9Y5N1); assay: hH3R radioligand displacement assay in membrane fractions of HEK-293 cells; type: binding; conditions: [3H]Nα-methylhistamine displacement, HEK-293 membranes; 95% CI in brackets
T1 construct: expressed in transfected cells; membrane fractions
Procedure: The compounds were tested against H3R by an ex vivo assay using isolated guinea pig ileum electrically stimulated to contraction, according to Vollinga et al.[47] The pA2-values were calculated according to Arunlakshana and Schild.[59] The radioligand-displacement assay was performed in membrane fractions of HEK-293 cells stably expressing hH3R. Cell cultivation and membrane preparation were performed according to Kottke et al.[48] The Ki values were calculated from the IC50 values using the Cheng–Prusoff equation.[60] The statistical calculations were performed on −log(Ki). The mean values and 95% confidence intervals were transformed to nanomolar concentrations. The inhibitory activities toward AChE and BuChE of novel ADS compounds were assessed in a spectrophotometric Ellman’s assay using electric eel AChE (eeAChE) and equine BuChE (eqBuChE).[57] Intracellular cAMP accumulation was measured with a homogeneous TR-FRET immunoassay using the LANCE Ultra cAMP kit (PerkinElmer) and HEK293 cells stably expressing the human histamine H3 receptor.[61] A more detailed description of the biological methods is presented in the Supporting Information. […]
considered statistically significant. The pA2 values were compared with the affinity of thioperamide (Sigma-Aldrich, St. Louis, MO, USA).
3.2. hH 3R radioligand displacement binding assay.
The radioligand displacement binding assay was performed in membrane fractions of HEK-293 cells stably expressing hH3R. Cell cultivation and membrane preparation was performed according to Kottke et al 6. For the radioligand displacement assay, radioactively labeled […]
assay volume was set to 200 µL. The compounds were tested in several appropriate concentrations between 100 µM and 0.1 nM. Pipetting was partly done by Freedom Evo® (Tecan). Pitolisant was used to determine non-specific binding at a concentration of 10 µM.
The membrane fraction (20 µg/well), test compounds, and radiolabeled ligand were incubated for 90 minutes at 25 °C while shaking. The bound radioligand was separated from the free radioligand by filtration through GF/B filters pre-treated with 0.3 % (m/v) polyethyleneimine using a cell harvester. Radioactivity was determined by liquid scintillation counting using a MicroBeta® Trilux (Perkin Elmer). The data was obtained in duplicates in at least three independent experiments. Non-specific binding was subtracted from the raw data to calculate specific binding values. The evaluation was performed with GraphPad Prism 6.1 (San Diego, CA, USA) using non-linear regression (one-site competition with a logarithmic scale). The Ki values were calculated from the IC50 values using the Cheng-Prusoff equation 7. The statistical calculations were performed on –log(Ki). […]

[2] = molecular target: T2, eeAChE (Electrophorus electricus, UniProt O42275); assay: biochemical
T2 construct: purchased Sigma–Aldrich (Steinheim, Germany)

[3] = molecular target: eqBuChE (Equus caballus, UniProt P81908); assay: biochemical
[4] = molecular target: T3, human histamine H3 receptor (Homo sapiens, UniProt Q9Y5N1); assay: H3R intrinsic activity, cAMP accumulation assay in HEK293 cells; type: cell-based
T3 construct: expressed in transfected cells
Procedure: For the lead compound ADS031, intrinsic activity at H3R was tested in HEK293 cells expressing recombinant human receptors using a cAMP accumulation assay. […] […].
The compounds were tested against H3R by an ex vivo assay using isolated guinea pig ileum electrically stimulated to contraction, according to Vollinga et al.[47] The pA2-values were calculated according to Arunlakshana and Schild.[59] The radioligand-displacement assay was performed in membrane fractions of HEK-293 cells stably expressing hH3R. Cell cultivation and membrane preparation were performed according to Kottke et al.[48] The Ki values were calculated from the IC50 values using the Cheng–Prusoff equation.[60] The statistical calculations were performed on −log(Ki). The mean values and 95% confidence intervals were transformed to nanomolar concentrations. The inhibitory activities toward AChE and BuChE of novel ADS compounds were assessed in a spectrophotometric Ellman’s assay using electric eel AChE (eeAChE) and equine BuChE (eqBuChE).[57] Intracellular cAMP accumulation was measured with a homogeneous TR-FRET immunoassay using the LANCE Ultra cAMP kit (PerkinElmer) and HEK293 cells stably expressing the human histamine H3 receptor.[61] A more detailed description of the biological methods is presented in the Supporting Information.
3.4. H3R intrinsic activity.
Intracellular cAMP accumulation was measured with homogenous TR-FRET immunoassay, using LANCE Ultra cAMP kit (PerkinElmer) and HEK293 cells, stably expressing human histamine H3 receptor. An antagonist dose-response experiments were performed in a total assay volume of 20 μl in white 384-well plates, using 750 cells/well. […] TR-FRET signal was read on Spark microplate reader (Tecan Life Sciences). Measured TR-FRET, which was inversely proportional to cAMP quantities in the sample, was then normalized and presented as % of maximal cAMP accumulation in the assay determined for the forskolin alone-stimulated cells. […]

T3 sequence (Q9Y5N1 whole entry): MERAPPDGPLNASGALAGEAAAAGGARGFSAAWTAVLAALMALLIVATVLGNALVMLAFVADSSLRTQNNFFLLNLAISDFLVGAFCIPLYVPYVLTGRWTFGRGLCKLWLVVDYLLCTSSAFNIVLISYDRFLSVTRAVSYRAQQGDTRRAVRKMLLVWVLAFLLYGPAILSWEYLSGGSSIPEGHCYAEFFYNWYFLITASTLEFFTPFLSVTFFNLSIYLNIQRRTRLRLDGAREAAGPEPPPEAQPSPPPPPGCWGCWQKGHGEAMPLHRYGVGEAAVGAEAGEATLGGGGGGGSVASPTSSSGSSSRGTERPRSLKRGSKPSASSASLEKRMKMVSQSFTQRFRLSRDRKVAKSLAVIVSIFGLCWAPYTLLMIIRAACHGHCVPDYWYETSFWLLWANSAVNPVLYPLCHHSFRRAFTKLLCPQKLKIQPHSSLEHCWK
T2 sequence (O42275 24-633): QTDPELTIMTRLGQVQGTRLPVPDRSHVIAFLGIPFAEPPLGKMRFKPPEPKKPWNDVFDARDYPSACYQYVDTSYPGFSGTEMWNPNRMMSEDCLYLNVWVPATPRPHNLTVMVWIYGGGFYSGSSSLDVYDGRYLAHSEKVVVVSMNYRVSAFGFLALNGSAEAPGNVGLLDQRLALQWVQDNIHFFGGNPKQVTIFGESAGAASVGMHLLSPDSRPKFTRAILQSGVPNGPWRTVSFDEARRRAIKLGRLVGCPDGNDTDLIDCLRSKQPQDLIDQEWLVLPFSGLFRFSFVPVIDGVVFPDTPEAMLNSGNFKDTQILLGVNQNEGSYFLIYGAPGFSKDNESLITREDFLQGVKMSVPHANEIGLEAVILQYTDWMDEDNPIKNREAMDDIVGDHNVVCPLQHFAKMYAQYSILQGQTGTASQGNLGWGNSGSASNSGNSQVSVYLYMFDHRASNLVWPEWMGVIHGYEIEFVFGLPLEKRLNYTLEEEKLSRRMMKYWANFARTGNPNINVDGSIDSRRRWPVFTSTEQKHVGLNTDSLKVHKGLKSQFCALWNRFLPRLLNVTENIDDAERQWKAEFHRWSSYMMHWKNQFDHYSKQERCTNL
Chain of eqBuChE (P81908 whole entry): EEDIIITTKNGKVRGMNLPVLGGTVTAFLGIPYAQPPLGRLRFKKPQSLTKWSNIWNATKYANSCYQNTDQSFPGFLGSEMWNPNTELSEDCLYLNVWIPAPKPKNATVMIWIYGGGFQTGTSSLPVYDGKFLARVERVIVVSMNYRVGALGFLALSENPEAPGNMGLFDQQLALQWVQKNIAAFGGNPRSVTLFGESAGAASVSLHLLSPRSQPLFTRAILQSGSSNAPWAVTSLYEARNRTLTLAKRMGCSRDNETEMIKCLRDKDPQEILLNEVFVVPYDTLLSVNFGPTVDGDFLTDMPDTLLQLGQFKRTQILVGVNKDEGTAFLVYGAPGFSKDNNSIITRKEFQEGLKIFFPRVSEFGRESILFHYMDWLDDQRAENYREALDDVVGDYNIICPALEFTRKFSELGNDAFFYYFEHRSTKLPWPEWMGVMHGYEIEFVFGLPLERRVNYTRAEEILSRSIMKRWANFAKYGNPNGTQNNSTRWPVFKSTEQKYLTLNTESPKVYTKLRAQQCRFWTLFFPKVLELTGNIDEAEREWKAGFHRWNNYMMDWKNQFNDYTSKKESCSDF
T1 sequence (Q9Y5N1 whole entry): as the sequence (Q9Y5N1 whole entry) above

`CCCN(C)Cc1ccc2cc(COC3CCN(Cc4ccccc4)CC3)ccc2c1` [ADS031, N-((6-(((1-Benzylpiperidin-4-yl)oxy)methyl)naphthalen-2-yl)methyl)-N-methylpropan-1-amine] showed a Ki [1] of 12.5 nM, an inhibition at 10 µM ([2]; read-out: eeAChE % inh. (10μM) ± SD) of 84.2 ± 0.6% and an IC50 ([2]; read-out: eeAChE IC50 (μM) ± sem) of 1.54 ± 0.038 µM. For the same compound, the inhibition at 10 µM ([3]; read-out: eqBuChE % inh. (10 μM) ± SD) was 93.1 ± 0.4%, the IC50 ([3]; read-out: eqBuChE IC50 [μM] ± sem) was 1.35 ± 0.05 µM and the Kb ([4]; Leff-Dougall variant of Cheng-Prusoff equation, read-out: Kb in H3R functional assay (cAMP accumulation)) was 0.75 ± 0.15 nM. For the same compound, the IC50 ([4]; against (R)-(−)-α-methylhistamine (30 nM), forskolin-stimulated HEK293 cells, read-out: IC50 in H3R functional assay (cAMP accumulation)) was 41.7 ± 8.5 nM and the H3R intrinsic activity ([4]; cAMP accumulation assay) was “H3R antagonist/inverse agonist”.
